Converted amounts (≈) assume the structure as drawn. The source made the active and inactive calls. The rule behind the calls is not given here.
What was measured:
[1] = Cytotoxicity against human PLC/PRF/5 cells; assay type: functional; conditions: read-out: ED50 (the source's name)
KB = test: Cytotoxicity against human KB cells; assay type: functional; conditions: read-out: ED50 (the source's name)
Mus musculus = test: Protective activity against CCL4-induced hepatotoxicity in ICR mouse assessed as SGOT/SGPT levels at 0.1 to 3 mg/kg, ip

Row | Compound | EC50 [1] | EC50 (KB) | Activity (Mus musculus)
1 | C[C@@H]1CC[C@]2(O[C@H]3C[C@H]4[C@@H]5CC=C6C[C@@H](O)CC[C@]6(C)[C@H]5CC[C@]4(C)[C@H]3[C@@H]2C)N(C)C1 | 8.02 µg/mL (≈ 18.8 µM) | 6 µg/mL (≈ 14 µM) | 
2 | C[C@@H]1CC[C@@]2(NC1)O[C@H]1C[C@H]3[C@@H]4CC=C5C[C@@H](O[C@@H]6O[C@H](CO)[C@@H](O[C@@H]7O[C@@H](C)[C@H](O)[C@@H](O)[C@H]7O)[C@H](O)[C@H]6O)CC[C@]5(C)[C@H]4CC[C@]3(C)[C@H]1[C@@H]2C |  |  | Active
3 | C[C@@H]1CC[C@H]([C@@H](C)C2[C@H](O)C[C@H]3[C@@H]4CC=C5C[C@@H](O[C@@H]6O[C@H](CO)[C@@H](O)[C@H](O)[C@H]6O)CC[C@]5(C)[C@H]4CC[C@]23C)NC1 (some centres undefined) |  |  | Active
4 | C[C@H]1CC[C@H]([C@@H](C)[C@H]2[C@H](O)C[C@H]3[C@@H]4CC=C5C[C@@H](O[C@@H]6O[C@H](CO)[C@@H](O)[C@H](O)[C@H]6O)CC[C@]5(C)[C@H]4CC[C@]23C)NC1 [CAPSICASTRINE] | 1.78 µg/mL (≈ 3.08 µM) |  | 
5 | C[C@H]1CC[C@H]([C@@H](C)[C@H]2[C@H](O)C[C@H]3[C@@H]4CC=C5C[C@@H](O)CC[C@]5(C)[C@H]4CC[C@]23C)NC1 [CAPSIMINE] | 1.97 µg/mL (≈ 4.74 µM) | 1.35 µg/mL (≈ 3.25 µM) | Active
6 | C[C@H]1CC=C([C@@H](C)[C@H]2[C@H](O)C[C@H]3[C@@H]4CC=C5C[C@@H](O)CC[C@]5(C)[C@H]4CC[C@]23C)NC1 [ETIOLINE] | 2.67 µg/mL (≈ 6.45 µM) | 11.2 µg/mL (≈ 27.1 µM) | 
7 | O=C1C[C@@H](c2ccc(O)cc2)Oc2cc(O)cc(O)c21 [NARINGENIN] | 2.47 µg/mL (≈ 9.07 µM) | 2.71 µg/mL (≈ 9.95 µM) | 
8 | C[C@@H]1CC[C@@]2(NC1)O[C@H]1C[C@H]3[C@@H]4CC=C5C[C@@H](O[C@@H]6O[C@H](CO)[C@H](O)[C@H](O[C@@H]7O[C@H](CO)[C@@H](O)[C@H](O)[C@H]7O)[C@H]6O[C@@H]6O[C@@H](C)[C@H](O)[C@@H](O)[C@H]6O)CC[C@]5(C)[C@H]4CC[C@]3(C)[C@H]1[C@@H]2C [SOLASONINE] | 7.88 µg/mL (≈ 8.91 µM) | 11.4 µg/mL (≈ 12.9 µM) | 
